34 compounds from patent US9988400B2 (Genentech, Inc., priority 2013, dated 2018) can be followed below.

Molecules are shown by their SMILES.

This assay deals with T1, HEK cells stably transfected with tetracycline inducible hNR1 and hNR2A (Homo sapiens, UniProt Q05586+Q12879).
T1 construct: expressed in transfected cells; host or cells: HEK cells, stably transfected, tetracycline/doxycycline inducible
The experiment in a line: Assay 1: Cell-Based Assay, cytosolic calcium response to positive allosteric modulators (with 30 μM glycine and 300 nM L-glutamate, EC30). The settings on record: Table 2; for EC50: cytosolic calcium response, with 30 μM glycine and 300 nM L-glutamate (EC30), — = no plateau was reached; for Max %: responses scaled relative to 100 μM L-glutamate maximal response (100%) and 0 μM L-glutamate (0%). The procedure, abridged:
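Cells induced 24 h with 7.5 μg mL^−1 doxycycline plus 500 μM (+)-ketamine, loaded 60 min at 37 °C with calcium dye in Mg-free HBSS (1.8 mM Ca, probenecid, 10 μM (+)-ketamine, pH 7.15). Peak RFU over 5 min after compound addition, scaled to 100 μM L-glutamate (100%) and 0 μM (0%); four-parameter Hill fit for EC50, max % if no plateau.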

T1 sequence (Q12879 23-1464, other chains not shown): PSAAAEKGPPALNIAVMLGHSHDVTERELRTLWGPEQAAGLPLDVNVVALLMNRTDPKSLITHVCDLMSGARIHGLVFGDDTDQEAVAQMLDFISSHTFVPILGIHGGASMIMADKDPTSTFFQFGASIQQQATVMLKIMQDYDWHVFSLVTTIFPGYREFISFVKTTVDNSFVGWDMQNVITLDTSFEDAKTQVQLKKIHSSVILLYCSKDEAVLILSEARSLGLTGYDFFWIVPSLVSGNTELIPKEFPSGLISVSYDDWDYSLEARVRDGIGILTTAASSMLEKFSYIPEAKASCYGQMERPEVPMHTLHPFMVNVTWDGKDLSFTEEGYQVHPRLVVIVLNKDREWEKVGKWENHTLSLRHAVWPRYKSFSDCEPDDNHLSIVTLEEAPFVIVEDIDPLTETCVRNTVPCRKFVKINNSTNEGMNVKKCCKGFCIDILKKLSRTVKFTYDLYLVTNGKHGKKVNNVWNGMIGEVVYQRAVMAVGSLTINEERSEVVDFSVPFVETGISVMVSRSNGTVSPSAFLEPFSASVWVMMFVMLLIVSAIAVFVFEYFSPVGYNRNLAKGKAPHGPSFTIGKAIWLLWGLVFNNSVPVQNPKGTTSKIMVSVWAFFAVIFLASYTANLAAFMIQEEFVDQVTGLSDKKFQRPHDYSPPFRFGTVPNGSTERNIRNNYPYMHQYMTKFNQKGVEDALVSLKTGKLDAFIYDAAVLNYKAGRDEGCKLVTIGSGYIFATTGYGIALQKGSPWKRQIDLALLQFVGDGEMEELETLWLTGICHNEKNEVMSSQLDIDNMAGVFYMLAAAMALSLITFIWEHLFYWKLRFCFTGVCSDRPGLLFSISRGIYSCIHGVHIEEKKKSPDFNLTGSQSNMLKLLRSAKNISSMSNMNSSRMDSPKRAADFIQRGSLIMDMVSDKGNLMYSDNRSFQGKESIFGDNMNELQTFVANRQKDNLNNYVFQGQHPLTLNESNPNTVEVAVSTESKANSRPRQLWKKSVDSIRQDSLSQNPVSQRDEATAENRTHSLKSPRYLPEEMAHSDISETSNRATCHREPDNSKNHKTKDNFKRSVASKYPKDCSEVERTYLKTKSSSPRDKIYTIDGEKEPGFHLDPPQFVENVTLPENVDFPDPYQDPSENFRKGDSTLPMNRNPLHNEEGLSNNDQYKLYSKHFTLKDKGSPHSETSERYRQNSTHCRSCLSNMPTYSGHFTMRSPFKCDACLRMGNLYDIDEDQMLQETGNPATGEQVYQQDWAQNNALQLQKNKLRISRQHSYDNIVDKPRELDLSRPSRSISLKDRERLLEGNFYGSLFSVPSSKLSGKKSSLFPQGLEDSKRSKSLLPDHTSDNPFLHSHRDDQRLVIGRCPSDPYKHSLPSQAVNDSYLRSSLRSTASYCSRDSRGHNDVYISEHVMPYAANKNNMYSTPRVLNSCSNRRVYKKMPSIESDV

Take `CCNC(=O)c1c(C)sc2nc(Cc3cc(F)c(F)cc3CC)cc(=O)n12` [Example 21.19, N-ethyl-7-(2-ethyl-4,5-difluorobenzyl)-2-methyl-5-oxo-5H-thiazolo[3,2-a]pyrimidine-3-carboxamide]: the EC50 is 7.4 µM and the Max % turned out to be 145%. On the same counts, the results for `CCNC(=O)c1c(C)sc2nc(Cc3cccc(C(F)F)c3F)cc(=O)n12` [Example 21.20, 7-[[3-(difluoromethyl)-2-fluoro-phenyl]methyl]-N-ethyl-2-methyl-5-oxo-thiazolo[3,2-a]pyrimidine-3-carboxamide] are 5.2 µM and 114%. In the same order, the values of `CCNC(=O)c1c(C)sc2nc(Cc3cc(F)ccc3CC)cc(=O)n12` [Example 21.21] are 33.6 µM and 134%. Regarding `CCNC(=O)c1c(C)sc2nc(Cc3cccc(C#N)n3)cc(=O)n12` [Example 21.22, 7-((6-cyanopyridin-2-yl)methyl)-N-ethyl-2-methyl-5-oxo-5H-thiazolo[3,2-a]pyrimidine-3-carboxamide], the Max % stood at 60.1%.

As for `CNC(=O)c1c(C)sc2nc(Cc3cccc(C(F)F)c3F)cc(=O)n12` [Example 21.23, 7-[[3-(difluoromethyl)-2-fluoro-phenyl]methyl]-N,2-dimethyl-5-oxo-thiazolo[3,2-a]pyrimidine-3-carboxamide], the EC50 is 6.5 µM and the Max % is 107%. On the same counts, the results for `CNC(=O)c1c(C)sc2nc(Cc3cccc(CO)c3F)cc(=O)n12` [Example 21.24, 7-[[2-fluoro-3-(hydroxymethyl)phenyl]methyl]-N,2-dimethyl-5-oxo-thiazolo[3,2-a]pyrimidine-3-carboxamide] are 34.5 µM and 102%. On the same counts, the results for `CCNC(=O)c1c(C)sc2nc(Cc3cccc(C4CC4)c3F)cc(=O)n12` [Example 21.25, 7-(3-cyclopropyl-2-fluorobenzyl)-N-ethyl-2-methyl-5-oxo-5H-thiazolo[3,2-a]pyrimidine-3-carboxamide] are 3.9 µM and 105%.

With `CCNC(=O)c1csc2nc(Cc3cccc(C#N)c3F)c(F)c(=O)n12` [Example 21.26, 7-(3-cyano-2-fluorobenzyl)-N-ethyl-6-fluoro-5-oxo-5H-thiazolo[3,2-a]pyrimidine-3-carboxamide], the Max % was determined as 76.5%. Take `CNC(=O)c1c(C)sc2nc(Cc3cccc(C#N)c3F)c(F)c(=O)n12` [Example 21.27]: the EC50 worked out at 16 µM and the Max % was determined as 122%. On the same counts, the results for `CCNC(=O)c1c(C)sc2nc(Cc3cccc(C#N)c3F)c(F)c(=O)n12` [Example 21.28, 7-(3-cyano-2-fluorobenzyl)-N-ethyl-6-fluoro-2-methyl-5-oxo-5H-thiazolo[3,2-a]pyrimidine-3-carboxamide] are 11.4 µM and 126%.

On to `CNC(=O)c1c(C)sc2nc(Cc3cccc(C(F)(F)F)c3F)c(F)c(=O)n12` [Example 21.29, 6-fluoro-7-(2-fluoro-3-(trifluoromethyl)benzyl)-N,2-dimethyl-5-oxo-5H-thiazolo[3,2-a]pyrimidine-3-carboxamide], for which the EC50 stood at 4.7 µM and the Max % is on record as 98.2%.

For `CCNC(=O)c1c(C)sc2nc(Cc3cc(C#N)ccc3C)cc(=O)n12` [Example 21.30, 7-(5-cyano-2-methylbenzyl)-N-ethyl-2-methyl-5-oxo-5H-thiazolo[3,2-a]pyrimidine-3-carboxamide], the Max % was 100%.

On to `CCNC(=O)c1c(C)sc2nc(Cc3cc(C#N)ccc3F)cc(=O)n12` [Example 21.31, 7-(5-cyano-2-fluorobenzyl)-N-ethyl-2-methyl-5-oxo-5H-thiazolo[3,2-a]pyrimidine-3-carboxamide], for which the Max % was determined as 88.8%.

For `CCNC(=O)c1c(C)sc2nc(Cc3cc(F)ccc3Cl)cc(=O)n12` [Example 21.32, 7-(2-chloro-5-fluorobenzyl)-N-ethyl-2-methyl-5-oxo-5H-thiazolo[3,2-a]pyrimidine-3-carboxamide], the Max % is on record as 84.3%. Regarding `CCNC(=O)c1csc2nc(Cc3cccc(C#N)c3F)cc(=O)n12` [Example 21.33, 7-(3-cyano-2-fluorobenzyl)-N-ethyl-5-oxo-5H-thiazolo[3,2-a]pyrimidine-3-carboxamide], the Max % is given as 82.5%. Turning to `CCNC(=O)c1c(C)sc2nc(Cc3cc(F)ccc3C(F)(F)F)cc(=O)n12` [Example 21.34, N-ethyl-7-(5-fluoro-2-(trifluoromethyl)benzyl)-2-methyl-5-oxo-5H-thiazolo[3,2-a]pyrimidine-3-carboxamide], the Max % was 79.9%. The same measure, in the same setting: under `CCNC(=O)c1c(C)sc2nc(Cc3cccc4ccccc34)cc(=O)n12` [Example 21.35, N-ethyl-2-methyl-7-(naphthalen-1-ylmethyl)-5-oxo-5H-thiazolo[3,2-a]pyrimidine-3-carboxamide] stands 77.8%; under `CCNC(=O)c1c(C)sc2nc(Cc3cc(F)ccc3C)cc(=O)n12` [Example 21.36, N-ethyl-7-(5-fluoro-2-methylbenzyl)-2-methyl-5-oxo-5H-thiazolo[3,2-a]pyrimidine-3-carboxamide], 71.8%; under `CCNC(=O)c1c(C)sc2nc(Cc3ccc(F)c(C#N)c3)cc(=O)n12` [Example 21.37, 7-(3-cyano-4-fluorobenzyl)-N-ethyl-2-methyl-5-oxo-5H-thiazolo[3,2-a]pyrimidine-3-carboxamide], 68.4%.

Consider `CCNC(=O)c1c(C)sc2nc(Cc3cccc4c3cnn4C)cc(=O)n12` [Example 21.38, N-ethyl-2-methyl-7-((1-methyl-1H-indazol-4-yl)methyl)-5-oxo-5H-thiazolo[3,2-a]pyrimidine-3-carboxamide], for which the Max % is 66.5%. For the compound `CCNC(=O)c1c(C)sc2nc(Cc3cccc(NS(C)(=O)=O)c3)cc(=O)n12` [Example 21.39, N-ethyl-2-methyl-7-(3-(methylsulfonamido)benzyl)-5-oxo-5H-thiazolo[3,2-a]pyrimidine-3-carboxamide], the Max % is 62.6%. On to `CCNC(=O)c1c(C)sc2nc(Cc3cc(C#N)ccc3C(F)(F)F)cc(=O)n12` [Example 21.40, 7-(5-cyano-2-(trifluoromethyl)benzyl)-N-ethyl-2-methyl-5-oxo-5H-thiazolo[3,2-a]pyrimidine-3-carboxamide], for which the Max % came to 61.6%.

In the case of `CNC(=O)c1c(C)sc2nc(Cc3ccc(Cl)cc3C)cc(=O)n12` [Example 21.41, 7-(4-chloro-2-methylbenzyl)-N,2-dimethyl-5-oxo-5H-thiazolo[3,2-a]pyrimidine-3-carboxamide], the Max % is listed as 59.7%. With `CCNC(=O)c1c(C)sc2nc(Cc3cc(F)ccc3F)cc(=O)n12` [Example 21.42, 7-(2,5-difluorobenzyl)-N-ethyl-2-methyl-5-oxo-5H-thiazolo[3,2-a]pyrimidine-3-carboxamide], the Max % amounted to 54.5%. On the same count and under the same terms, for `CCNC(=O)c1c(C2CC2)sc2nc(Cc3cccc(C#N)c3)cc(=O)n12` [Example 21.43, 7-(3-cyanobenzyl)-2-cyclopropyl-N-ethyl-5-oxo-5H-thiazolo[3,2-a]pyrimidine-3-carboxamide] the value was 53.5%; for `CCNC(=O)c1c(C)sc2nc(Cc3ccccc3F)cc(=O)n12` [Example 21.44, N-ethyl-7-(2-fluorobenzyl)-2-methyl-5-oxo-5H-thiazolo[3,2-a]pyrimidine-3-carboxamide], 51.9%.

For `CCNC(=O)c1c(C)sc2nc(Cc3cccc(F)c3F)cc(=O)n12` [Example 21.45, 7-(2,3-difluorobenzyl)-N-ethyl-2-methyl-5-oxo-5H-thiazolo[3,2-a]pyrimidine-3-carboxamide], the Max % amounted to 49.1%. Regarding `CCNC(=O)c1c(C)sc2nc(Cc3cccc(F)c3)cc(=O)n12` [Example 21.46, N-ethyl-7-(3-fluorobenzyl)-2-methyl-5-oxo-5H-thiazolo[3,2-a]pyrimidine-3-carboxamide], the Max % is recorded as 43.2%. Regarding `CNC(=O)c1c(C)sc2nc(Cc3ccc(F)c(Cl)c3)cc(=O)n12` [Example 21.47, 7-[(3-chloro-4-fluoro-phenyl)methyl]-N,2-dimethyl-5-oxo-thiazolo[3,2-a]pyrimidine-3-carboxamide], the Max % was 103%. On to `CNC(=O)c1c(C)sc2nc(Cc3cc(Cl)ccc3Cl)cc(=O)n12` [Example 21.48, 7-[(2,5-dichlorophenyl)methyl]-N,2-dimethyl-5-oxo-thiazolo[3,2-a]pyrimidine-3-carboxamide], for which the EC50 stood at 8.2 µM and the Max % is on record as 100%.

As to `CNC(=O)c1c(C)sc2nc(Cc3cccc(OC(F)(F)F)c3)cc(=O)n12` [Example 21.49, N,2-dimethyl-5-oxo-7-[[3-(trifluoromethoxy)phenyl]methyl]thiazolo[3,2-a]pyrimidine-3-carboxamide], the Max % was 82.3%. On the same count and under the same terms, under `CNC(=O)c1c(C)sc2nc(Cc3cc(C#N)ccc3F)cc(=O)n12` [Example 21.50, 7-[(5-cyano-2-fluoro-phenyl)methyl]-N,2-dimethyl-5-oxo-thiazolo[3,2-a]pyrimidine-3-carboxamide] stands 76.1%; under `CNC(=O)c1c(C)sc2nc(Cc3cc(Cl)cc(C#N)c3)cc(=O)n12` [Example 21.51, 7-[(3-chloro-5-cyano-phenyl)methyl]-N,2-dimethyl-5-oxo-thiazolo[3,2-a]pyrimidine-3-carboxamide], 75.0%; under `CNC(=O)c1c(C)sc2nc(Cc3cccc(C4CC4)c3)cc(=O)n12` [Example 21.52, 7-[(3-cyclopropylphenyl)methyl]-N,2-dimethyl-5-oxo-thiazolo[3,2-a]pyrimidine-3-carboxamide], 72.9%.
